Measured values as given in PubChem BioAssay AID1963837 (Molecular Pharmacology Branch, DTP, NCI, 2024).
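Note: spheroids exposed to drugs for seven days before readout.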

What follows are compounds tested on 843126-344-R-J1-PDC complex spheroid viability (assay: Anticancer human tumor 843126-344-R-J1-PDC patient-derived melanoma cell line growth inhibition [POLQ]). Details: second compound 0.1 µM; first compound 1 µM; stronger effect = lower value.
Summary of the method: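 Patient-derived tumour cells were co-cultured with HUVEC and mesenchymal stem cells as multicellular spheroids at 37 °C. They were treated with POLQ inhibitors (novobiocin, ART-558, RP6685) alone or combined with other agents. Top concentrations were at or near clinical Cmax (otherwise 10 microM; SN-38 at 1 microM), decreasing in half-log steps.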
Compound `C=CC(=O)N1CCN(c2nc(=O)n(-c3c(C)ccnc3C(C)C)c3nc(-c4c(O)cccc4F)c(F)cc23)C(C)C1` (configuration not stated) + Cc1cccc(N(C)C(=O)C2C(O)CCN2c2nc(C)cc(C(F)(F)F)c2C#N)c1 has a viability, T/C of 97%. `CC(C)n1c(=O)n(C)c2cnc3cc(F)c(-c4ccc(OCCCN5CCCCC5)nc4)cc3c21` + Cc1cccc(N(C)C(=O)C2C(O)CCN2c2nc(C)cc(C(F)(F)F)c2C#N)c1 was tested, and the viability, T/C was 83.1%. With `COc1cc2cc(C(=O)CCC(=O)O)sc2cc1OC` + Nc1ccc(C#CCN(C(=O)Cc2ncc(C(F)(F)F)cc2C(F)(F)F)c2ccc(F)cc2)nn1 the viability, T/C was 102%. For `CC1COCCN1c1cc(-c2ccnn2C)c2ccnc(-c3ccn[nH]3)c2n1` (configuration not stated) + Nc1ccc(C#CCN(C(=O)Cc2ncc(C(F)(F)F)cc2C(F)(F)F)c2ccc(F)cc2)nn1, the viability, T/C was 48.3%.

Same assay, conditions: second compound 0.1 µM; first compound 3.16 µM; stronger effect = lower value
For `CC1COCCN1c1cc(C2(S(C)(=N)=O)CC2)nc(-c2ccnc3[nH]ccc23)n1` (configuration not stated) + Cc1cccc(N(C)C(=O)C2C(O)CCN2c2nc(C)cc(C(F)(F)F)c2C#N)c1, the viability, T/C was 79.3%. For `CNCc1ccc(-c2[nH]c3cc(F)cc4c3c2CCNC4=O)cc1` + COC1C(OC(N)=O)C(O)C(Oc2ccc3c(O)c(NC(=O)c4ccc(O)c(CC=C(C)C)c4)c(=O)oc3c2C)OC1(C)C, the viability, T/C was 99.7%. For `C=CC(=O)N1CCN(c2nc(=O)n(-c3c(C)ccnc3C(C)C)c3nc(-c4c(O)cccc4F)c(F)cc23)C(C)C1` (configuration not stated) + Cc1cccc(N(C)C(=O)C2C(O)CCN2c2nc(C)cc(C(F)(F)F)c2C#N)c1, the viability, T/C was 80.7%. `CC(C)n1c(=O)n(C)c2cnc3cc(F)c(-c4ccc(OCCCN5CCCCC5)nc4)cc3c21` + Cc1cccc(N(C)C(=O)C2C(O)CCN2c2nc(C)cc(C(F)(F)F)c2C#N)c1 showed a viability, T/C of 78.1%. `COc1cc2cc(C(=O)CCC(=O)O)sc2cc1OC` + Nc1ccc(C#CCN(C(=O)Cc2ncc(C(F)(F)F)cc2C(F)(F)F)c2ccc(F)cc2)nn1 was tested, and the viability, T/C was 89.9%. `CC1COCCN1c1cc(-c2ccnn2C)c2ccnc(-c3ccn[nH]3)c2n1` (configuration not stated) + Nc1ccc(C#CCN(C(=O)Cc2ncc(C(F)(F)F)cc2C(F)(F)F)c2ccc(F)cc2)nn1 gave a viability, T/C of 43.5%.

Same assay, conditions: second compound 0.1 µM; first compound 10 µM; stronger effect = lower value
`CC1COCCN1c1cc(C2(S(C)(=N)=O)CC2)nc(-c2ccnc3[nH]ccc23)n1` (configuration not stated) + Cc1cccc(N(C)C(=O)C2C(O)CCN2c2nc(C)cc(C(F)(F)F)c2C#N)c1 showed a viability, T/C of 55.8%. Work on `CNCc1ccc(-c2[nH]c3cc(F)cc4c3c2CCNC4=O)cc1` + COC1C(OC(N)=O)C(O)C(Oc2ccc3c(O)c(NC(=O)c4ccc(O)c(CC=C(C)C)c4)c(=O)oc3c2C)OC1(C)C yielded a viability, T/C of 87.1%. For `C=CC(=O)N1CCN(c2nc(=O)n(-c3c(C)ccnc3C(C)C)c3nc(-c4c(O)cccc4F)c(F)cc23)C(C)C1` (configuration not stated) + Cc1cccc(N(C)C(=O)C2C(O)CCN2c2nc(C)cc(C(F)(F)F)c2C#N)c1, the viability, T/C was 80.7%. `CC(C)n1c(=O)n(C)c2cnc3cc(F)c(-c4ccc(OCCCN5CCCCC5)nc4)cc3c21` + Cc1cccc(N(C)C(=O)C2C(O)CCN2c2nc(C)cc(C(F)(F)F)c2C#N)c1 gave a viability, T/C of 67.1%. `COc1cc2cc(C(=O)CCC(=O)O)sc2cc1OC` + Nc1ccc(C#CCN(C(=O)Cc2ncc(C(F)(F)F)cc2C(F)(F)F)c2ccc(F)cc2)nn1 showed a viability, T/C of 107%. `CC1COCCN1c1cc(-c2ccnn2C)c2ccnc(-c3ccn[nH]3)c2n1` (configuration not stated) + Nc1ccc(C#CCN(C(=O)Cc2ncc(C(F)(F)F)cc2C(F)(F)F)c2ccc(F)cc2)nn1 gave a viability, T/C of 28.6%.

Same assay, conditions: second compound 0.316 µM; first compound 0.00316 µM; stronger effect = lower value
`C=CCn1c(=O)c2cnc(Nc3ccc(N4CCN(C)CC4)cc3)nc2n1-c1cccc(C(C)(C)O)n1` + Cc1cccc(N(C)C(=O)C2C(O)CCN2c2nc(C)cc(C(F)(F)F)c2C#N)c1 gave a viability, T/C of 101%.

Same assay, conditions: second compound 0.316 µM; first compound 0.01 µM; stronger effect = lower value
`C=CCn1c(=O)c2cnc(Nc3ccc(N4CCN(C)CC4)cc3)nc2n1-c1cccc(C(C)(C)O)n1` + Cc1cccc(N(C)C(=O)C2C(O)CCN2c2nc(C)cc(C(F)(F)F)c2C#N)c1 showed a viability, T/C of 103%.

Same assay, conditions: second compound 0.316 µM; first compound 0.0316 µM; stronger effect = lower value
For `CC1COCCN1c1cc(C2(S(C)(=N)=O)CC2)nc(-c2ccnc3[nH]ccc23)n1` (configuration not stated) + Cc1cccc(N(C)C(=O)C2C(O)CCN2c2nc(C)cc(C(F)(F)F)c2C#N)c1, the viability, T/C was 81.6%. `C=CCn1c(=O)c2cnc(Nc3ccc(N4CCN(C)CC4)cc3)nc2n1-c1cccc(C(C)(C)O)n1` + Cc1cccc(N(C)C(=O)C2C(O)CCN2c2nc(C)cc(C(F)(F)F)c2C#N)c1 showed a viability, T/C of 108%. For `CNCc1ccc(-c2[nH]c3cc(F)cc4c3c2CCNC4=O)cc1` + COC1C(OC(N)=O)C(O)C(Oc2ccc3c(O)c(NC(=O)c4ccc(O)c(CC=C(C)C)c4)c(=O)oc3c2C)OC1(C)C, the viability, T/C was 98.7%. For `C=CC(=O)N1CCN(c2nc(=O)n(-c3c(C)ccnc3C(C)C)c3nc(-c4c(O)cccc4F)c(F)cc23)C(C)C1` (configuration not stated) + Cc1cccc(N(C)C(=O)C2C(O)CCN2c2nc(C)cc(C(F)(F)F)c2C#N)c1, the viability, T/C was 81.3%. `CC(C)n1c(=O)n(C)c2cnc3cc(F)c(-c4ccc(OCCCN5CCCCC5)nc4)cc3c21` + Cc1cccc(N(C)C(=O)C2C(O)CCN2c2nc(C)cc(C(F)(F)F)c2C#N)c1 was tested, and the viability, T/C was 92%. Work on `COc1cc2cc(C(=O)CCC(=O)O)sc2cc1OC` + Nc1ccc(C#CCN(C(=O)Cc2ncc(C(F)(F)F)cc2C(F)(F)F)c2ccc(F)cc2)nn1 yielded a viability, T/C of 96.1%. `CC1COCCN1c1cc(-c2ccnn2C)c2ccnc(-c3ccn[nH]3)c2n1` (configuration not stated) + Nc1ccc(C#CCN(C(=O)Cc2ncc(C(F)(F)F)cc2C(F)(F)F)c2ccc(F)cc2)nn1 showed a viability, T/C of 85.3%.

Same assay, conditions: second compound 0.316 µM; first compound 0.1 µM; stronger effect = lower value
`CC1COCCN1c1cc(C2(S(C)(=N)=O)CC2)nc(-c2ccnc3[nH]ccc23)n1` (configuration not stated) + Cc1cccc(N(C)C(=O)C2C(O)CCN2c2nc(C)cc(C(F)(F)F)c2C#N)c1 was tested, and the viability, T/C was 107%. Work on `C=CCn1c(=O)c2cnc(Nc3ccc(N4CCN(C)CC4)cc3)nc2n1-c1cccc(C(C)(C)O)n1` + Cc1cccc(N(C)C(=O)C2C(O)CCN2c2nc(C)cc(C(F)(F)F)c2C#N)c1 yielded a viability, T/C of 93.3%. `CNCc1ccc(-c2[nH]c3cc(F)cc4c3c2CCNC4=O)cc1` + COC1C(OC(N)=O)C(O)C(Oc2ccc3c(O)c(NC(=O)c4ccc(O)c(CC=C(C)C)c4)c(=O)oc3c2C)OC1(C)C gave a viability, T/C of 88.6%. `C=CC(=O)N1CCN(c2nc(=O)n(-c3c(C)ccnc3C(C)C)c3nc(-c4c(O)cccc4F)c(F)cc23)C(C)C1` (configuration not stated) + Cc1cccc(N(C)C(=O)C2C(O)CCN2c2nc(C)cc(C(F)(F)F)c2C#N)c1 gave a viability, T/C of 85.6%. Work on `CC(C)n1c(=O)n(C)c2cnc3cc(F)c(-c4ccc(OCCCN5CCCCC5)nc4)cc3c21` + Cc1cccc(N(C)C(=O)C2C(O)CCN2c2nc(C)cc(C(F)(F)F)c2C#N)c1 yielded a viability, T/C of 96.9%. `COc1cc2cc(C(=O)CCC(=O)O)sc2cc1OC` + Nc1ccc(C#CCN(C(=O)Cc2ncc(C(F)(F)F)cc2C(F)(F)F)c2ccc(F)cc2)nn1 was tested, and the viability, T/C was 94.2%. For `CC1COCCN1c1cc(-c2ccnn2C)c2ccnc(-c3ccn[nH]3)c2n1` (configuration not stated) + Nc1ccc(C#CCN(C(=O)Cc2ncc(C(F)(F)F)cc2C(F)(F)F)c2ccc(F)cc2)nn1, the viability, T/C was 77.2%.

Same assay, conditions: second compound 0.316 µM; first compound 0.316 µM; stronger effect = lower value
Work on `CC1COCCN1c1cc(C2(S(C)(=N)=O)CC2)nc(-c2ccnc3[nH]ccc23)n1` (configuration not stated) + Cc1cccc(N(C)C(=O)C2C(O)CCN2c2nc(C)cc(C(F)(F)F)c2C#N)c1 yielded a viability, T/C of 76.6%. `C=CCn1c(=O)c2cnc(Nc3ccc(N4CCN(C)CC4)cc3)nc2n1-c1cccc(C(C)(C)O)n1` + Cc1cccc(N(C)C(=O)C2C(O)CCN2c2nc(C)cc(C(F)(F)F)c2C#N)c1 was tested, and the viability, T/C was 89.3%. For `CNCc1ccc(-c2[nH]c3cc(F)cc4c3c2CCNC4=O)cc1` + COC1C(OC(N)=O)C(O)C(Oc2ccc3c(O)c(NC(=O)c4ccc(O)c(CC=C(C)C)c4)c(=O)oc3c2C)OC1(C)C, the viability, T/C was 90.7%. In the case of `C=CC(=O)N1CCN(c2nc(=O)n(-c3c(C)ccnc3C(C)C)c3nc(-c4c(O)cccc4F)c(F)cc23)C(C)C1` (configuration not stated) + Cc1cccc(N(C)C(=O)C2C(O)CCN2c2nc(C)cc(C(F)(F)F)c2C#N)c1, the viability, T/C is reported as 91.1%. Work on `CC(C)n1c(=O)n(C)c2cnc3cc(F)c(-c4ccc(OCCCN5CCCCC5)nc4)cc3c21` + Cc1cccc(N(C)C(=O)C2C(O)CCN2c2nc(C)cc(C(F)(F)F)c2C#N)c1 yielded a viability, T/C of 88.7%.
